Assay results as given in patent US20230063109A1, “MIXTURES COMPRISING NITRIFICATION INHIBITORS AND CARRIERS” (BASF SE, priority 2020, published 2023).

Tested on: nitrification in soil (microbial biomass)
Test: Incubation experiment: measurement of the nitrification-inhibiting effect in soil (NH4—N recovery)
Conditions: overall summary of the experiments
Procedure: In all treatments the same nitrogen as well as the same AI (active ingredient) amounts were applied. In case of the two tested nitrification inhibitors DMPP and DMPSA it was 1% NI (nitrification inhibitor) related to the sum of NH2—N and NH4—N of the corresponding carrier fertilizer. In case of physical mixtures, in which only one part of the fertilizers was treated with a NI, the concentrations of the corresponding AI were higher so that the overall amounts of NI were the same as in the control treatment.
100 g soil (incubated at 20° C. for two weeks to activate the microbial biomass) is filled into 500 ml plastic bottles (e.g. soil sampled from the field) and is moistened to 50% water holding capacity. The fertilizers are treated with the respective products containing the compositions and mixtures of the invention in the appropriate concentration.
Granules of the treated fertilizers are evenly distributed to the soil. The amount of fertilizer which is applied corresponds to 10 mg of reduced nitrogen per bottle.
The bottles are capped loosely to allow air exchange. The bottles are then incubated at 20° C. for 28 days.
For analysis, 300 mL of a 1% K2SO4-solution is added to the bottle containing the soil and shaken for 2 hours in a horizontal shaker at 150 rpm. […] The ammonium contents of the filtrates are analyzed with an autoanalyzer at 550 nm (Merck, AA11).

2-(3,4-dimethyl-1H-pyrazol-1-yl)succinic acid and/or 2-(4,5-dimethyl-1H-pyrazol-1-yl)succinic acid [DMPSA]
inhibition of nitrification (in words): sufficiently be inhibited

3,4-dimethyl pyrazole phosphate and/or 4,5-dimethyl pyrazole phosphate [DMPP]
inhibition of nitrification (in words): sufficiently be inhibited
